Results reported in patent publication US9079866B2, “Flap modulators” (JANSSEN PHARMACEUTICA NV, priority 2013, dated 2015).
Where a name gives a salt, the structure may show the parent alone.

Biological target: human FLAP (Homo sapiens (Human), UniProt P20292)
Test: FLAP binding assay (HTRF format)
Conditions: HTRF format
Method: The ability of the compounds of the present invention to treat a FLAP-mediated disease and/or disorder, or associated symptoms or complications thereof, was determined using the following procedures. Binding assay data represent the average value obtained from two different assay plates, with samples run in duplicate on each plate. Human whole blood assay data represent a single replicate on an assay plate using whole blood from at least one healthy donor.
Data are expressed as a HTRF ratio.

human FLAP, sequence (P20292 whole entry): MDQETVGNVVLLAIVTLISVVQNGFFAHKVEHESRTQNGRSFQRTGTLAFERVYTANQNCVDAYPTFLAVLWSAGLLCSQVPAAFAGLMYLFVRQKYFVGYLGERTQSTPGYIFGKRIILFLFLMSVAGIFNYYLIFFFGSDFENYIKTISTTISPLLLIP

Ki (wild type FLAP)	Ki (human FLAP wild type, average of two plates, duplicates)	Compound
> 10000 nM	–	CS(=O)(=O)c1ccccc1-c1ccc(-c2cnc(N)cn2)cc1 [Example 589, 5-[2′-(Methylsulfonyl)biphenyl-4-yl]pyrazin-2-amine]
> 10000 nM	–	Nc1ncc(-c2ccc(-c3ccccc3C(=O)NC3CCOCC3)cc2F)cn1 [Example 797, 2-[4-(2-Aminopyrimidin-5-yl)-3-fluoro-phenyl]-N-tetrahydropyran-4-yl-benzamide]
> 10000 nM	–	Cc1cc(-c2ccccc2S(C)(=O)=O)ccc1-c1cnc(N)cn1 [Example 590, 5-[3-Methyl-2′-(methylsulfonyl)biphenyl-4-yl]pyrazin-2-amine]
> 10000 nM	–	Nc1ncc(-c2ccc(-c3cccnc3N)cc2F)cn1 [Example 409, 5-[4-(2-Aminopyridin-3-yl)-2-fluorophenyl]pyrimidin-2-amine]
> 10000 nM	–	CC(C)(C)NS(=O)(=O)c1ccccc1-c1ccc(-c2cn3cc(C#N)ccc3n2)c(F)c1 [Example 585, N-tert-Butyl-4′-(6-cyanoimidazo[1,2-a]pyridin-2-yl)-3′-fluorobiphenyl-2-sulfonamide]
> 10000 nM	–	Nc1ncc(-c2ccc(-c3ccccc3S(=O)(=O)c3ncccn3)cc2F)cn1 [Example 718, 5-[3-Fluoro-2′-(pyrimidin-2-ylsulfonyl)biphenyl-4-yl]pyrimidin-2-amine]
114 nM	–	Nc1cnc(-c2ccc(-c3ccccc3S(=O)(=O)N3CCOCC3)cc2)cn1 [Example 573, 5-[2′-(Morpholin-4-ylsulfonyl)biphenyl-4-yl]pyrazin-2-amine]
904 nM	–	Nc1cnc(-c2ccc(-c3ccccc3S(=O)(=O)c3cc(N)ncn3)cc2F)cn1 [Example 726, 6-{[4′-(5-Aminopyrazin-2-yl)-3′-fluorobiphenyl-2-yl]sulfonyl}pyrimidin-4-amine]
–	2500 nM	Nc1cnc(S(=O)(=O)c2ccccc2-c2ccc(-c3cnc(N)nc3)c(F)c2)nc1 [Example 339, 5-{2′-[(5-Aminopyrimidin-2-yl)sulfonyl]-3-fluorobiphenyl-4-yl}pyrimidin-2-amine hydrochloride]

Further lines, the compound ahead of its results:

Compound	Ki (wild type FLAP)	Ki (human FLAP wild type, average of two plates, duplicates)
Nc1ncc(-c2ccc(-c3cccnc3C(=O)N3CCOCC3)cc2F)cn1 [Example 782, 5-{2-Fluoro-4-[2-(morpholin-4-ylcarbonyl)pyridin-3-yl]phenyl}pyrimidin-2-amine]	> 10000 nM	–
Nc1ncc(-c2ccc(-c3cccnc3OCCO)cc2F)cn1 [Example 649, 2-({3-[4-(2-Aminopyrimidin-5-yl)-3-fluorophenyl]pyridin-2-yl}oxy)ethanol]	> 10000 nM	–
Nc1ncc(-c2ccc(-c3ccccc3S(=O)(=O)CCNC(=O)c3ccccc3)cc2F)cn1 [Example 716, N-(2-{[4′-(2-Aminopyrimidin-5-yl)-3′-fluorobiphenyl-2-yl]sulfonyl}ethyl)benzamide]	> 10000 nM	–
CC(O)C1CN(C(=O)c2ccccc2-c2ccc(-c3cnc(N)nc3)c(F)c2)CCO1 (mixture of isomers) [Example 759, 1-(4-{[4′-(2-Aminopyrimidin-5-yl)-3′-fluorobiphenyl-2-yl]carbonyl}morpholin-2-yl)ethanol (diastereomeric mixture)]	> 10000 nM	–
Nc1cnc(-c2ccc(-c3cccnc3S(=O)(=O)C3CCNCC3)cc2F)cn1 [Example 832, 5-{2-Fluoro-4-[2-(piperidin-4-ylsulfonyl)pyridin-3-yl]phenyl}pyrazin-2-amine hydrochloride]	1310 nM	–
CCN(CC)C(=O)CS(=O)(=O)c1ccccc1-c1ccc(-c2cnc(N)nc2)c(F)c1 [Example 600, 2-{[4′-(2-Aminopyrimidin-5-yl)-3′-fluorobiphenyl-2-yl]sulfonyl}-N,N-diethylacetamide]	> 10000 nM	–
Cc1ccccc1-c1ccc(-c2cnc(N)cn2)c(F)c1 [Example 470, 5-(3-Fluoro-2′-methylbiphenyl-4-yl)pyrazin-2-amine]	620 nM	–
Nc1ncc(-c2ccc(-c3ccccc3S(=O)(=O)CC3CC3)cc2F)cn1 [Example 728, 5-{2′-[(Cyclopropylmethyl)sulfonyl]-3-fluorobiphenyl-4-yl}pyrimidin-2-amine]	781 nM	–
